Assay: recombinant UMI read abundance after kanamycin selection (control-corrected) (log10(CPM+1)); higher = more efficient recombination; extreme values may be limits of the assay; sequences stand for … in AGTGCAGAGAAAATCGGCCAGTTTTCTCTGCCTGCAGTCCGCATGCCGTGGGACCCCTTGGGTTCTAACCTGTTGCCTAGATTTATGCAGCGGACTGCCTTTCTCCCAAAGTGATAAACCGG…AGGTTGGTTTCACT; site = the 11-nt donor
Summary of the method: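 Sequenced counts of recombinant UMIs were turned into CPM, averaged across replicates and scaled with control-derived factors. The reported figure is log10(CPM+1). Those UMIs, each 12 nt long, tagged donor and donor-binding-loop pairs on a plasmid with a promoterless kanamycin gene, screened as a pool in Escherichia coli with IPTG (0.07 mM) plus kanamycin or without selection.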
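Note: IS621 bridge recombinase in Escherichia coli cells against a fixed T5 target plasmid.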

| Sequence | recombinant UMI read abundance (log10) |
| --- | --- |
| AGGACACCATGGACCGGTTTTCCCGGTAATCCGTATTTGTA (site AGGACACCTTA) | 0.189 |
| AGGACATCATGGACCGGTTTTCCCGGTAATCCGTATTTGCT (site AGGACATCTAG) | 1.48 |
| AGGACATCATGGACCGGTTTTCCCGGTAATCCGTATTTGCT (site CGGACATCTAG) | 1.01 |
| AGGACATCATGGACCGGTTTTCCCGGTAATCCGTATTTGCT (site GGGACATCTAG) | 0.0498 |
| AGGACATCATGGACCGGTTTTCCCGGTAATCCGTATTTGCT (site TGGACATCTAG) | 1.15 |
| AGGACCCCATGGACCGGTTTTCCCGGTAATCCGTATTTGGT (site AGGACCCCTAC) | 0.297 |
| AGGACGGCATGGACCGGTTTTCCCGGTAATCCGTATTTGAA (site AGGACGGCTTT) | 1.73 |
| AGGACTACATGGACCGGTTTTCCCGGTAATCCGTATTTGAC (site AAGACTACTGT) | 0.848 |
| AGGACTACATGGACCGGTTTTCCCGGTAATCCGTATTTGAC (site ACGACTACTGT) | 0.945 |
| AGGACTACATGGACCGGTTTTCCCGGTAATCCGTATTTGAC (site AGAACTACTGT) | 2.18 |
| AGGACTACATGGACCGGTTTTCCCGGTAATCCGTATTTGAC (site AGCACTACTGT) | 0.0103 |
| AGGACTACATGGACCGGTTTTCCCGGTAATCCGTATTTGAC (site AGGAATACTGT) | 1.29 |
| AGGACTACATGGACCGGTTTTCCCGGTAATCCGTATTTGAC (site AGGACAACTGT) | 0.797 |
| AGGACTACATGGACCGGTTTTCCCGGTAATCCGTATTTGAC (site AGGACCACTGT) | 0.969 |
| AGGACTACATGGACCGGTTTTCCCGGTAATCCGTATTTGAC (site AGGACGACTGT) | 0.00571 |
| AGGACTACATGGACCGGTTTTCCCGGTAATCCGTATTTGAC (site AGGACTACTAT) | 0.00291 |
| AGGACTACATGGACCGGTTTTCCCGGTAATCCGTATTTGAC (site AGGACTACTCT) | 0.0111 |
| AGGACTACATGGACCGGTTTTCCCGGTAATCCGTATTTGAC (site AGGACTACTGA) | 0 |
| AGGACTACATGGACCGGTTTTCCCGGTAATCCGTATTTGAC (site AGGACTACTGC) | 0.68 |
| AGGACTACATGGACCGGTTTTCCCGGTAATCCGTATTTGAC (site AGGACTACTGG) | 0 |
| AGGACTACATGGACCGGTTTTCCCGGTAATCCGTATTTGAC (site AGGACTACTGT) | 2.29 |
| AGGACTACATGGACCGGTTTTCCCGGTAATCCGTATTTGAC (site AGGACTACTTT) | 0.0694 |
| AGGACTACATGGACCGGTTTTCCCGGTAATCCGTATTTGAC (site AGGACTCCTGT) | 0 |

| Sequence | recombinant UMI read abundance (log10) |
| --- | --- |
| AGGACTACATGGACCGGTTTTCCCGGTAATCCGTATTTGAC (site AGGACTGCTGT) | 0.359 |
| AGGACTACATGGACCGGTTTTCCCGGTAATCCGTATTTGAC (site AGGACTTCTGT) | 0.0138 |
| AGGACTACATGGACCGGTTTTCCCGGTAATCCGTATTTGAC (site AGGAGTACTGT) | 0 |
| AGGACTACATGGACCGGTTTTCCCGGTAATCCGTATTTGAC (site AGGATTACTGT) | 0.471 |
| AGGACTACATGGACCGGTTTTCCCGGTAATCCGTATTTGAC (site AGGCCTACTGT) | 0.988 |
| AGGACTACATGGACCGGTTTTCCCGGTAATCCGTATTTGAC (site AGGGCTACTGT) | 0 |
| AGGACTACATGGACCGGTTTTCCCGGTAATCCGTATTTGAC (site AGGTCTACTGT) | 1.2 |
| AGGACTACATGGACCGGTTTTCCCGGTAATCCGTATTTGAC (site AGTACTACTGT) | 0.941 |
| AGGACTACATGGACCGGTTTTCCCGGTAATCCGTATTTGAC (site ATGACTACTGT) | 1.13 |
| AGGACTACATGGACCGGTTTTCCCGGTAATCCGTATTTGAC (site CGGACTACTGT) | 0.831 |
| AGGACTACATGGACCGGTTTTCCCGGTAATCCGTATTTGAC (site GGGACTACTGT) | 0 |
| AGGACTACATGGACCGGTTTTCCCGGTAATCCGTATTTGAC (site TGGACTACTGT) | 0.901 |
| AGGACTACATGGACCGGTTTTCCCGGTAATCCGTATTTGCA (site AGGAAGACTTG) | 0 |
| AGGACTACATGGACCGGTTTTCCCGGTAATCCGTATTTGCA (site AGGACTACTTG) | 2.22 |
| AGGACTCCATGGACCGGTTTTCCCGGTAATCCGTATTTGAC (site AGGACTACTGT) | 0 |
| AGGACTCCATGGACCGGTTTTCCCGGTAATCCGTATTTGAC (site AGGACTCCTGT) | 0.719 |
| AGGACTCCATGGACCGGTTTTCCCGGTAATCCGTATTTGAC (site AGGACTGCTGT) | 0 |
| AGGACTCCATGGACCGGTTTTCCCGGTAATCCGTATTTGAC (site AGGACTTCTGT) | 0 |
| AGGACTGCATGGACCGGTTTTCCCGGTAATCCGTATTTGAC (site AGGACTACTGT) | 2.15 |
| AGGACTGCATGGACCGGTTTTCCCGGTAATCCGTATTTGAC (site AGGACTCCTGT) | 0.533 |
| AGGACTGCATGGACCGGTTTTCCCGGTAATCCGTATTTGAC (site AGGACTGCTGT) | 2.92 |
| AGGACTGCATGGACCGGTTTTCCCGGTAATCCGTATTTGAC (site AGGACTTCTGT) | 0 |
| AGGAGATCATGGACCGGTTTTCCCGGTAATCCGTATTTGGG (site AGGAGATCTCC) | 0.505 |

| Sequence | recombinant UMI read abundance (log10) |
| --- | --- |
| AGGAGGCCATGGACCGGTTTTCCCGGTAATCCGTATTTGCA (site AGGAAGACTTG) | 0 |
| AGGAGGCCATGGACCGGTTTTCCCGGTAATCCGTATTTGCA (site AGGAGGCCTTG) | 0.211 |
| AGGAGGGCATGGACCGGTTTTCCCGGTAATCCGTATTTGCC (site AGGAGGGCTGG) | 2.16 |
| AGGAGTGCATGGACCGGTTTTCCCGGTAATCCGTATTTGAG (site AGGAGTGCTCT) | 2.37 |
| AGGATAACATGGACCGGTTTTCCCGGTAATCCGTATTTGCA (site AGGAAGACTTG) | 1.01 |
| AGGATAACATGGACCGGTTTTCCCGGTAATCCGTATTTGCA (site AGGATAACTTG) | 2.55 |
| AGGATCTCATGGACCGGTTTTCCCGGTAATCCGTATTTGAA (site AGGATCTCTTT) | 2.92 |
| AGGATGTCATGGACCGGTTTTCCCGGTAATCCGTATTTGCA (site AGGAAGACTTG) | 0.00922 |
| AGGATGTCATGGACCGGTTTTCCCGGTAATCCGTATTTGCA (site AGGATGTCTTG) | 3.06 |
| AGGCAGGCATGGACCGGTTTTCCCGGTAATCCGTATTTGCA (site AGGAAGACTTG) | 0 |
| AGGCAGGCATGGACCGGTTTTCCCGGTAATCCGTATTTGCA (site AGGCAGGCTTG) | 2.63 |
| AGGCATACATGGACCGGTTTTCCCGGTAATCCGTATTTGCA (site AGGAAGACTTG) | 0 |
| AGGCATACATGGACCGGTTTTCCCGGTAATCCGTATTTGCA (site AGGCATACTTG) | 2.15 |
| AGGCGACCATGGACCGGTTTTCCCGGTAATCCGTATTTGTT (site AGGCGACCTAA) | 0.00859 |
| AGGCTCCCATGGACCGGTTTTCCCGGTAATCCGTATTTGTG (site AGGATCCCTCA) | 0.00474 |
| AGGCTCCCATGGACCGGTTTTCCCGGTAATCCGTATTTGTG (site AGGCTCCCTCA) | 0.0267 |
| AGGCTCCCATGGACCGGTTTTCCCGGTAATCCGTATTTGTG (site AGGGTCCCTCA) | 0.0171 |
| AGGCTCCCATGGACCGGTTTTCCCGGTAATCCGTATTTGTG (site AGGTTCCCTCA) | 0.0277 |
| AGGGACCCATGGACCGGTTTTCCCGGTAATCCGTATTTGAA (site AGGGACCCTTT) | 0.531 |
| AGGGAGACATGGACCGGTTTTCCCGGTAATCCGTATTTGTA (site AGGAAGACTTG) | 0 |
| AGGGAGACATGGACCGGTTTTCCCGGTAATCCGTATTTGTA (site AGGGAGACTTA) | 1.57 |
| AGGGGTCCATGGACCGGTTTTCCCGGTAATCCGTATTTGTA (site AGGGGTCCTTA) | 0.489 |

From the supplement of paper PMC11208160
